Patent publication US20200032249A1, “LABELING, ISOLATION, & ANALYSIS OF RNA FROM RARE CELL POPULATIONS” (priority 2017, published 2020)

Experiments:
293T cells expressing CD = test: immunopurification of labeled mRNAs with anti-BrdU antibody and RT-PCR, CD-expressing 293T cells; type: cell-based, human
Experimental: FIG. 1a-f. Labeling and purification of RNA by CD expression and 5-FC treatment. FIG. 1a—Schematic diagram showing RNA labeling using CD and 5-FC. FIG. 1b—Chemical reactions steps involved in the labeling of RNA using CD and 5-FC. The dotted arrow indicates the intermediary steps that are not shown. FIG. 1c Relative fold enrichment of mRNA isolated by Flura-tagging. 293T cells expressing CD or unlabeled controls were treated with 5-FC for the indicated times, labeled mRNAs were immunopurified using anti-BrdU antibody, and the levels of labeled mRNAs of the indicated genes relative to corresponding non-immunoprecipitated inputs normalized to immunopurified mRNAs from cells not expressing CD were quantified by RT-PCR. […] FIG. 1d—Schematic diagram of the constructs used for inducible expression of UPRT and/or CD, and the experimental design. Transduced RFP+MDA231 cells were mixed with unlabeled cells, treated with doxycycline for 24 h and then 5-FC for 4-12 h. Cells were analyzed by immunofluorescence or harvested for RNA analysis. FIG. 1e—Flura-tagging in MDA231 cells in vitro. […] The fold enrichment of the indicated representative human genes over mouse housekeeping genes (mHPRT1 and mLDH1) was measured by RT-PCR (n=3±S.E.). […]
Next, we determined whether 5-FU-labeled mRNAs can be specifically and efficiently isolated by immunoprecipitation. […]

[1] = tested on: CD/UPRT-expressing MDA231 cells; test: expression of representative human genes in mouse lung lysates by RT-PCR; type: in vivo; conditions: 250 mg/kg, 8 h, mouse lungs
Experimental: FIG. 5 a-e. Flura-tagging enables transcriptional profiling from micrometastatic lung xenografts. FIG. 5a—Representative H & E stained sections of mouse lungs harboring micrometastases (arrows) used in Flura-tagging experiments. […] Scale bar=2 mm (top), 100 μM (bottom). FIG. 5b—Representative micrometastasis in the context of lung vasculature. MDA231 cells were stained with anti-GFP antibody, blood vessels with anti-CD31 antibody and nuclei (DNA) with Hoechst 33258. Scale bar=50 μM. FIG. 5c—Quantification of the number of cells per micrometastasis per tissue section in engrafted lungs of mice used in the Flura-tagging experiments. The number of nuclei in individual micrometastases in lung sections from 16 separate mice were counted. […] Expression of the indicated representative genes in the lung lysates containing control MDA231 cells or MDA231 cells expressing CD/UPRT and treated with 250 mg/kg 5-FC for 8 h, was measured by RT-PCR using human specific primers (n=3). […] FIG. 5e—Flow cytometric quantification of the number of RFP+ MDA231 cells in mouse lung in the Flura-tagging experiments. […]
Mouse experiments were performed following the protocols approved by the MSKCC Institutional Animal Care and Use Committee (IACUC). […] Proliferation of injected cancer cells were quantified using bioluminescence imaging following retroorbital injection of luciferin. […]

SMILES: Nc1nc(=O)[nH]cc1F [5-FC, 5-fluorocytosine]
- time for which labeling continued to increase (293T cells expressing CD): up to 24 h
- time after treatment at which labeled mRNAs were detectable (293T cells expressing CD; three representative genes): 2 h
- range of expression of representative human genes vs control MDA231 cells [1]: ≤ 2 fold
